Assay [1] addresses T1, ΔF508-CFTR (Homo sapiens, UniProt P13569, DEL508-508).
T1 construct: host or cells: CFBE41o-, doxycycline-inducible
The assay is described as follows: CFTR cell surface levels using HRP-tagged ΔF508-CFTR expressing CFBE cells, intrinsic corrector capacity. Type of assay: cell-based. The settings on record: for pEC50: read-out: EC50. An outline of the steps:
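Here the cells express ΔF508-CFTR with horseradish peroxidase inserted in extracellular loop 4, so only rescued channel at the surface gives luminescent signal. Compounds act on their own, 20 h at the reduced temperature of 33 °C; values are percent activity relative to DMSO and a 3 μM corrector.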

The target in assay [2] is T1, ΔF508-CFTR. The assay is described as follows: CFTR cell surface levels using HRP-tagged ΔF508-CFTR expressing CFBE cells, in the presence of a co-corrector. The class given is cell-based. The settings on record: HRP-tagged ΔF508-CFTR expressing CFBE cells, in the presence of 3 μM co-corrector; for pEC50: read-out: EC50. The essentials:
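Cells were seeded with 0.5 μg/mL doxycycline and held 68 h at 37 °C. Test compounds plus 3 μM co-corrector (final 0.1% DMSO) were then added for 20 h at 33 °C. Washed cells received HRP substrate, and luminescence was normalized between DMSO and 3 μM co-corrector controls.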

The mark [3] stands for this setting: HRP-tagged ΔF508-CFTR expressing CFBE cells, intrinsic corrector capacity (no co-corrector), 33° C., 20 hours.
Setting [4] is: HRP-tagged ΔF508-CFTR CFBE41o- cells, compounds alone (intrinsic corrector capacity), 20 hours at 33° C., positive control 3 μM corrector.
[5] abbreviates: HRP-tagged ΔF508-CFTR CFBE41o- cells, compounds alone (intrinsic corrector capacity), 20 hours at 33° C.

The values below come from patent publication US9796711B2, “Substituted pyrazolo[3,4-b]pyridin-6-carboxylic acids and method of use” (AbbVie S.àr.l., priority 2015, dated 2017).

pEC50: −log10 of the molar value.

T1 sequence (P13569 with tags, fused parts or gaps DEL508-508): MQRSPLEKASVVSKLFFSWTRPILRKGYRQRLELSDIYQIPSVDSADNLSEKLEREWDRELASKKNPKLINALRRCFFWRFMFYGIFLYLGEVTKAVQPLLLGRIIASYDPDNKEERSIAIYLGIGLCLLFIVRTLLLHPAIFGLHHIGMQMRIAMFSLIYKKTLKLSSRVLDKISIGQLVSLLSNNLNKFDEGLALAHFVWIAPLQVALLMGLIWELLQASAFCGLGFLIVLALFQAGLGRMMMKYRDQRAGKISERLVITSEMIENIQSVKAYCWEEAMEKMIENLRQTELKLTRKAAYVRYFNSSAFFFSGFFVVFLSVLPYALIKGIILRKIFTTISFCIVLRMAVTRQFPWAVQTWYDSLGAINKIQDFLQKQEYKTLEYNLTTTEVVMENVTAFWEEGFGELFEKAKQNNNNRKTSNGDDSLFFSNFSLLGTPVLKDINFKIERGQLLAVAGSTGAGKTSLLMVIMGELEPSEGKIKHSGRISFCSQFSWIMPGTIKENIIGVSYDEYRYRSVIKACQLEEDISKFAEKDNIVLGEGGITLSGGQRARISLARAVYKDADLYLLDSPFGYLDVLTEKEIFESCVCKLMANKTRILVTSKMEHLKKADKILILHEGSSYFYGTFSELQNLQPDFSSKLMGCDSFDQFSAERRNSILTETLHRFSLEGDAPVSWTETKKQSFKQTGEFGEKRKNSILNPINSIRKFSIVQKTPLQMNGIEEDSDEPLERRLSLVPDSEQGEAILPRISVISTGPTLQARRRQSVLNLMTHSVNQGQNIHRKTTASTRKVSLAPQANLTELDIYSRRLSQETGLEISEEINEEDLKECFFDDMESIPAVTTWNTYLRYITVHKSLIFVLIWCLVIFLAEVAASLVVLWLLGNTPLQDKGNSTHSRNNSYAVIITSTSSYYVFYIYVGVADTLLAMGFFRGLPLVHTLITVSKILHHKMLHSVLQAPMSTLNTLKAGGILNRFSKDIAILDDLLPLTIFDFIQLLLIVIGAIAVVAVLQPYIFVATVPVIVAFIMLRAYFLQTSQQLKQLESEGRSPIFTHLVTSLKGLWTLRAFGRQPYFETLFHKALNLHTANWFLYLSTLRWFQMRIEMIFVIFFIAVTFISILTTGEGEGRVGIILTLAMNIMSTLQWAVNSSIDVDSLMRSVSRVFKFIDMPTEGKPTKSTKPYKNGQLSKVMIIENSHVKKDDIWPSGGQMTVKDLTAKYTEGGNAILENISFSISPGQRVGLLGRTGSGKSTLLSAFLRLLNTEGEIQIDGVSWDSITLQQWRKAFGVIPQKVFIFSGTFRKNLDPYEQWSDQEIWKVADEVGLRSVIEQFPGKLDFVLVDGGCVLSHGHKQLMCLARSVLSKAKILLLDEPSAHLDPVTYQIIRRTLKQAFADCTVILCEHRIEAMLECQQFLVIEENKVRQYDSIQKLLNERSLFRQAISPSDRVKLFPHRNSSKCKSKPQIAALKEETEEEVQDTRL

Consider `O=C(O)c1cc(N2CCC(N3CCOCC3)CC2)c2c(C3CCC3)nn(-c3cccc(C(F)(F)F)c3)c2n1` [compound 826, 3-cyclobutyl-4-[4-(morpholin-4-yl)piperidin-1-yl]-1-[3-(trifluoromethyl)phenyl]-1H-pyrazolo[3,4-b]pyridine-6-carboxylic acid], for which the results for the “% Activation” value at ΔF508-CFTR [1] (setting [3]) and at ΔF508-CFTR [2] were 314.4% and 528.15%, respectively. The pEC50 (as a rule, the negative decadic logarithm of the EC50, by convention in mol/L) at ΔF508-CFTR [1] (setting [3]) is 6.80; at ΔF508-CFTR [2], 6.99.
On to `Cc1nn(-c2cccc(N(C)C)c2)c2nc(C(=O)O)cc(-c3ccc(N4CCOCC4)cc3)c12` [compound 36, 1-[3-(dimethylamino)phenyl]-3-methyl-4-[4-(morpholin-4-yl)phenyl]-1H-pyrazolo[3,4-b]pyridine-6-carboxylic acid], for which the “% Activation” value was 118.9% on ΔF508-CFTR [1] (setting [4]) and 364.5% at ΔF508-CFTR [2]. The pEC50 is 5.70 on ΔF508-CFTR [1] (setting [5]) and 5.48 at ΔF508-CFTR [2].
Turning to `CC(C)c1nn(-c2cccc(N3CCCC3)c2)c2nc(C(=O)O)cc(-c3cnc(N4CCC(C#N)CC4)nc3)c12` [compound 259, 4-[2-(4-cyanopiperidin-1-yl)pyrimidin-5-yl]-3-(propan-2-yl)-1-[3-(pyrrolidin-1-yl)phenyl]-1H-pyrazolo[3,4-b]pyridine-6-carboxylic acid], the “% Activation” value turned out to be 438.95% at ΔF508-CFTR [1] (setting [4]) and 673.9% at ΔF508-CFTR [2]. Also, the results for the pEC50 on ΔF508-CFTR [1] (setting [5]) and at ΔF508-CFTR [2] were 5.95 and 5.99, respectively.
Turning to `O=C(O)c1cc(OCCC2OCCCO2)c2c(C3CCC3)nn(-c3ccccc3)c2n1` [compound 488, 3-cyclobutyl-4-[2-(1,3-dioxan-2-yl)ethoxy]-1-phenyl-1H-pyrazolo[3,4-b]pyridine-6-carboxylic acid], the “% Activation” value at ΔF508-CFTR [1] (setting [3]) came to 95.49%; at ΔF508-CFTR [2] it was 261.9%. Besides, the pEC50 at ΔF508-CFTR [1] (setting [3]) is 6.12; at ΔF508-CFTR [2], 6.34.
As to `CC(C)c1nn(-c2cccc(N(C)C)c2)c2nc(C(=O)O)cc(OCC3CCOCC3)c12` [compound 602, 1-[3-(dimethylamino)phenyl]-4-[(oxan-4-yl)methoxy]-3-(propan-2-yl)-1H-pyrazolo[3,4-b]pyridine-6-carboxylic acid], on ΔF508-CFTR [1] (setting [3]), the “% Activation” value came out at 159.3% and the pEC50 is 6.59. Besides, at ΔF508-CFTR [2], the “% Activation” value is 393.4% and the pEC50 was 6.87.
On to `Cc1nn(-c2ccccc2)c2nc(C(=O)O)cc(-c3ccc(N4CC(N(C)C)C4)cc3)c12` [compound 72], for which the “% Activation” value is given as 91.87% at ΔF508-CFTR [1] (setting [4]) and 308.1% at ΔF508-CFTR [2]. The pEC50 at ΔF508-CFTR [1] (setting [5]) was 5.65; on ΔF508-CFTR [2], 5.48.
For `O=C(O)c1cc(N2C[C@H](O)[C@@H](O)C2)c2c(C3CCC3)nn(-c3ccccc3)c2n1` [compound 446, 3-cyclobutyl-4-[(3S,4S)-3,4-dihydroxypyrrolidin-1-yl]-1-phenyl-1H-pyrazolo[3,4-b]pyridine-6-carboxylic acid], at ΔF508-CFTR [1] (setting [3]), the “% Activation” value amounted to 20.695% and the pEC50 is less than 5.00. In addition, on ΔF508-CFTR [2], the “% Activation” value is 171.35% and the pEC50 was 5.48.
As to `CC(C)c1nn(-c2ccc(F)cc2)c2nc(C(=O)O)cc(N3CCC(CC4CCCCC4)CC3)c12` [compound 780, 4-[4-(cyclohexylmethyl)piperidin-1-yl]-1-(4-fluorophenyl)-3-(propan-2-yl)-1H-pyrazolo[3,4-b]pyridine-6-carboxylic acid], on ΔF508-CFTR [1] (setting [3]), the “% Activation” value is 233.5% and the pEC50 was 6.60. At ΔF508-CFTR [2], the “% Activation” value stood at 429.5% and the pEC50 is 6.91.
Taken in the same sequence, the figures for `Cc1cc(-n2nc(C3CCC3)c3c(N4CCC(N5CCOCC5)CC4)cc(C(=O)O)nc32)ccc1F` [compound 824, 3-cyclobutyl-1-(4-fluoro-3-methylphenyl)-4-[4-(morpholin-4-yl)piperidin-1-yl]-1H-pyrazolo[3,4-b]pyridine-6-carboxylic acid] were 338.9%, 6.75, 535.65% and 6.56.
Take `O=C(O)c1cc(N2CCOC(CO)C2)c2c(C3CCC3)nn(-c3ccccc3)c2n1` (centres unmarked) [compound 531, 3-cyclobutyl-4-[2-(hydroxymethyl)morpholin-4-yl]-1-phenyl-1H-pyrazolo[3,4-b]pyridine-6-carboxylic acid]: the figures for the “% Activation” value at ΔF508-CFTR [1] (setting [3]) and on ΔF508-CFTR [2] were 91.66% and 223.4%, respectively. For the same compound, the pEC50 at ΔF508-CFTR [1] (setting [3]) was 5.48; on ΔF508-CFTR [2], 5.84.
In the same order, the values of `COC(C)(C)C1CCN(c2cc(C(=O)O)nc3c2c(C(C)C)nn3-c2ccc(F)cc2)CC1` [compound 438, 1-(4-fluorophenyl)-4-[4-(2-methoxypropan-2-yl)piperidin-1-yl]-3-(propan-2-yl)-1H-pyrazolo[3,4-b]pyridine-6-carboxylic acid] are 277.03%, 507.27%, 6.48 and 6.41.
For `Cc1nn(C2CCCCC2)c2nc(C(=O)O)cc(-c3cnc(N(C)C)nc3)c12` [compound 75, 1-cyclohexyl-4-[2-(dimethylamino)pyrimidin-5-yl]-3-methyl-1H-pyrazolo[3,4-b]pyridine-6-carboxylic acid], the results for the “% Activation” value on ΔF508-CFTR [1] (setting [4]) and on ΔF508-CFTR [2] were 117.1% and 254%, respectively. Also, the pEC50 at ΔF508-CFTR [1] (setting [5]) was 5.50; on ΔF508-CFTR [2], 5.94.
Turning to `Cc1cccc(-n2nc(C(C)C)c3c(N4CCC(C#N)C4)cc(C(=O)O)nc32)c1` (centres unmarked) [compound 218, 4-(3-cyanopyrrolidin-1-yl)-1-(3-methylphenyl)-3-(propan-2-yl)-1H-pyrazolo[3,4-b]pyridine-6-carboxylic acid], the “% Activation” value on ΔF508-CFTR [1] (setting [4]) turned out to be 169.4%; on ΔF508-CFTR [2], 380.9%. Besides, the results for the pEC50 on ΔF508-CFTR [1] (setting [5]) and at ΔF508-CFTR [2] were 5.64 and 6.03, respectively.
In the case of `CC(C)c1nn(-c2cccc(N3CC(F)C3)c2)c2nc(C(=O)O)cc(-c3ccc(N4CCOCC4)cc3)c12` [compound 167, 1-[3-(3-fluoroazetidin-1-yl)phenyl]-4-[4-(morpholin-4-yl)phenyl]-3-(propan-2-yl)-1H-pyrazolo[3,4-b]pyridine-6-carboxylic acid], the “% Activation” value at ΔF508-CFTR [1] (setting [4]) stood at 301.1%; on ΔF508-CFTR [2], 568.2%. For the same compound, the values for the pEC50 on ΔF508-CFTR [1] (setting [5]) and at ΔF508-CFTR [2] were 6.22 and 6.27, respectively.
On to `O=C(O)c1cc(N2CCC(CN3CCCC(F)(F)C3)CC2)c2c(C3CCC3)nn(-c3ccccc3)c2n1` [compound 830, 3-cyclobutyl-4-{4-[(3,3-difluoropiperidin-1-yl)methyl]piperidin-1-yl}-1-phenyl-1H-pyrazolo[3,4-b]pyridine-6-carboxylic acid], for which, at ΔF508-CFTR [1] (setting [3]), the “% Activation” value was found to be 353.9% and the negative-log EC50 (pEC50) was 6.94. Moreover, at ΔF508-CFTR [2], the “% Activation” value is on record as 588.2% and the pEC50 was 7.20.
On to `Cc1nn(-c2ccccc2)c2nc(C(=O)O)cc(OCC3(F)CCCN(C4COC4)C3)c12` (centres unmarked) [compound 381, 4-{[3-fluoro-1-(oxetan-3-yl)piperidin-3-yl]methoxy}-3-methyl-1-phenyl-1H-pyrazolo[3,4-b]pyridine-6-carboxylic acid], for which the “% Activation” value on ΔF508-CFTR [1] (setting [4]) is 17.695%; at ΔF508-CFTR [2], 182.9%. The pEC50 at ΔF508-CFTR [1] (setting [5]) was 5.30; on ΔF508-CFTR [2], 5.78.
As for `COc1ccc(-c2cc(C(=O)O)nc3c2c(C)nn3C2CCCCC2)cc1` [compound 2, 1-cyclohexyl-4-(4-methoxyphenyl)-3-methyl-1H-pyrazolo[3,4-b]pyridine-6-carboxylic acid], the figures for the “% Activation” value at ΔF508-CFTR [1] (setting [4]) and at ΔF508-CFTR [2] were 49.03% and 198.6%, respectively. Further, the values for the pEC50 on ΔF508-CFTR [1] (setting [5]) and at ΔF508-CFTR [2] were 5.58 and 5.53, respectively.
In the same order, the values of `Cc1nn(-c2ccccc2)c2nc(C(=O)O)cc(OC3COC3)c12` [compound 341, 3-methyl-4-[(oxetan-3-yl)oxy]-1-phenyl-1H-pyrazolo[3,4-b]pyridine-6-carboxylic acid] are 25.115%, 149.55%, 5.38 and 5.39.
`O=C(O)c1cc(N2CCC(N3CCOCC3)CC2)c2c(C3CCC3)nn(-c3ccc(C(F)(F)F)cc3)c2n1` [compound 823, 3-cyclobutyl-4-[4-(morpholin-4-yl)piperidin-1-yl]-1-[4-(trifluoromethyl)phenyl]-1H-pyrazolo[3,4-b]pyridine-6-carboxylic acid]: on ΔF508-CFTR [1] (setting [3]), the “% Activation” value stood at 188.7% and the pEC50 is 6.59. Besides, on ΔF508-CFTR [2], the “% Activation” value turned out to be 375.2% and the pEC50 is 6.83.
Consider `CN1C(=O)CO[C@@H]2CN(c3cc(C(=O)O)nc4c3c(C3CCC3)nn4-c3ccccc3)C[C@@H]21` [compound 503, 3-cyclobutyl-4-[(4aS,7aR)-4-methyl-3-oxohexahydropyrrolo[3,4-b][1,4]oxazin-6(2H)-yl]-1-phenyl-1H-pyrazolo[3,4-b]pyridine-6-carboxylic acid], for which the “% Activation” value on ΔF508-CFTR [1] (setting [3]) was 65.78%; on ΔF508-CFTR [2], 220.8%. The negative logarithm of the EC50 (pEC50) was 5.48 at ΔF508-CFTR [1] (setting [3]) and 5.50 at ΔF508-CFTR [2].
